Measurements published in patent US11186554B2, “Non-fused tricyclic compounds” (VIVACE THERAPEUTICS, INC., priority 2017, dated 2021).
Read-outs that look alike come from different tables or passages of the source.

System: firefly luciferase activity
Experiment: Dual-Glo firefly/renilla luciferase reporter assay in cells
Type: cell-based
[1] = 24 hrs compound treatment, starting from 3 uM, 1:3 dilution, 10 points, read-out: Firefly Luciferase IC50
[2] = 24 h, read-out: Firefly Luciferase IC50 (μM)

With `NS(=O)(=O)NCCn1nnc(-c2ccccc2Nc2ccc(C(F)(F)F)cc2)n1` [Compound 99, 2-[2-(sulfamoylamino)ethyl]-5-[2-[4-(trifluoromethyl)anilino]phenyl]tetrazole] as the compound, how does the IC50 [1] read?
Its IC50 is 1 to 5 µM.

For `NS(=O)(=O)Cn1nnc(-c2ccccc2Nc2ccc(C(F)(F)F)cc2)n1` [Compound 101, (5-(2-((4-(trifluoromethyl)phenyl)amino)phenyl)-2H-tetrazol-2-yl)methane sulfonamide], which IC50 [1] is on record?
Its IC50 is 0.1 to 1 µM.

With `NC(=O)Cn1nnc(-c2ccccc2Nc2ccc(C(F)(F)F)cc2)n1` [Compound 102, 2-[5-[2-[4-(trifluoromethyl)anilino]phenyl]tetrazol-2-yl]acetamide] as the compound, how does the IC50 [2] read?
The IC50 was under 0.1 µM.

Which IC50 [2] does the source give for `CC(O)Cn1nnc(-c2ccccc2Nc2ccc(C(F)(F)F)cc2)n1` (stereo not drawn) [Compound 105, 1-[5-[2-[4-(trifluoromethyl)anilino]phenyl]tetrazol-2-yl]propan-2-ol] here?
Its IC50 is under 0.1 µM.

With `CC(C)(O)Cn1nnc(-c2ccccc2Nc2ccc(C(F)(F)F)cc2)n1` [Compound 106] as the compound, how does the IC50 [1] read?
Its IC50 is under 0.1 µM.

With `NC(=O)NCCn1nnc(-c2ccccc2Nc2ccc(C(F)(F)F)cc2)n1` [Compound 108, 2-[5-[2-[4-(trifluoromethyl)anilino]phenyl]tetrazol-2-yl]ethylurea] as the compound, how does the IC50 [1] read?
The IC50 was under 0.1 µM.

For `CS(=O)(=O)NCCCn1nnc(-c2ccccc2Nc2ccc(C(F)(F)F)cc2)n1` [Compound 109, N-(3-(5-(2-((4-(trifluoromethyl)phenyl)amino)phenyl)-2H-tetrazol-2-yl)propyl)methanesulfonamide], which IC50 [1] is on record?
Its IC50 is 1 to 5 µM.

`CC(=O)NCCCn1nnc(-c2ccccc2Nc2ccc(C(F)(F)F)cc2)n1` [Compound 111, N-[3-[5-[2-[4-(trifluoromethyl)anilino]phenyl]tetrazol-2-yl]propyl]acetamide] was tested. Which IC50 [1] did it give?
Its IC50 is 0.1 to 1 µM.

With `O=C(Cn1nnc(-c2ccccc2Nc2ccc(C(F)(F)F)cc2)n1)NO` [Compound 113, 2-[5-[2-[4-(trifluoromethyl)anilino]phenyl]tetrazol-2-yl]ethanehydroxamic acid] as the compound, how does the IC50 [2] read?
Its IC50 is 0.1 to 1 µM.

Which IC50 [1] does the source give for `OCC(O)Cn1nnc(-c2ccccc2Nc2ccc(C(F)(F)F)cc2)n1` (stereo not drawn) [Compound 114, 3-(5-(2-((4-(trifluoromethyl)phenyl)amino)phenyl)-2H-tetrazol-2-yl)propane-1,2-diol] here?
The IC50 was under 0.1 µM.

For `CCOC(=O)C(C)n1nnc(-c2ccccc2Nc2ccc(C(F)(F)F)cc2)n1` (stereo not drawn) [Compound 116, ethyl 2-[5-[2-[4-(trifluoromethyl)anilino]phenyl]tetrazol-2-yl]propanoate], which IC50 [1] is on record?
Its IC50 is under 0.1 µM.

Which IC50 [1] does the source give for `FCCn1nnc(-c2ccccc2Nc2ccc(C(F)(F)F)cc2)n1` [Compound 117, 2-[2-(2-fluoroethyl)tetrazol-5-yl]-N-[4-(trifluoromethyl)phenyl]aniline] here?
The IC50 was 0.1 to 1 µM.

With `FC(F)(F)c1ccc(Nc2ccccc2-c2nnn(C3CCOC3)n2)cc1` (stereo not drawn) [Compound 119, 2-(2-(tetrahydrofuran-3-yl)-2H-tetrazol-5-yl)-N-(4-(trifluoromethyl)phenyl) Aniline] as the compound, how does the IC50 [1] read?
The IC50 was under 0.1 µM.

`FC(F)(F)c1ccc(Nc2ccccc2-c2nnn(C3CCCOC3)n2)cc1` (stereo not drawn) [Compound 120, 2-(2-tetrahydropyran-3-yltetrazol-5-yl)-N-[4-(trifluoromethyl)phenyl]aniline] was tested. Which IC50 [1] did it give?
The IC50 was 0.1 to 1 µM.

With `O=C(Cn1nnc(-c2ccccc2Nc2ccc(C(F)(F)F)cc2)n1)C1CC1` [Compound 121, 1-cyclopropyl-2-[5-[2-[4-(trifluoromethyl)anilino]phenyl]tetrazol-2-yl]ethanone] as the compound, how does the IC50 [2] read?
Its IC50 is 0.1 to 1 µM.

With `FC(F)(F)c1ccc(Nc2ccccc2-c2nnn(C3CCOCC3)n2)cc1` [Compound 122, 2-(2-tetrahydropyran-4-yltetrazol-5-yl)-N-[4-(trifluoromethyl)phenyl]aniline] as the compound, how does the IC50 [1] read?
Its IC50 is 0.1 to 1 µM.

`FC(F)(F)c1ccc(Nc2ccccc2-c2nnn(C3COC3)n2)cc1` [Compound 123, 2-[2-(oxetan-3-yl)tetrazol-5-yl]-N-[4-(trifluoromethyl)phenyl]aniline] was tested. Which IC50 [1] did it give?
The IC50 was under 0.1 µM.

`NC(=O)OCCn1nnc(-c2ccccc2Nc2ccc(C(F)(F)F)cc2)n1` [Compound 124, 2-[5-[2-[4-(trifluoromethyl)anilino]phenyl]tetrazol-2-yl]ethyl carbamate] was tested. Which IC50 [1] did it give?
Its IC50 is under 0.1 µM.
